According to patent US10280166B2, “2-(1H-indazol-3-yl)-3H-imidazo[4,5-B]pyridine and therapeutic uses thereof” (Samumed, LLC, priority 2014, dated 2019):

test system: Wnt activity (SW480 colon carcinoma cells stably expressing the Sp5-Luc reporter gene); experiment: Sp5-Luc reporter gene screening assay for Wnt activity in SW480 cells; format: cell-based; conditions: Homo sapiens, 42 h incubation, luminescence
Description: The screening assay for Wnt activity is described as follows. Reporter cell lines can be generated by stably transducing cancer cell lines (e.g., colon cancer) or primary cells (e.g., IEC-6 intestinal cells) with a lentiviral construct that includes a Wnt-responsive promoter driving expression of the firefly luciferase gene.
SW480 colon carcinoma cells were transduced with a lentiviral vector expressing luciferase with a human Sp5 promoter consisting of a sequence of eight TCF/LEF binding sites. SW480 cells stably expressing the Sp5-Luc reporter gene and a hygromycin resistance gene were selected by treatment with 150 μg/ml of hygromycin for 7 days. These stably transduced SW480 cells were expanded in cell culture and used for all further screening activities. For Sp5-Luc reporter gene assays, the cells were plated at 10,000 cells/well in 96-well plates with growth medium containing 10% fetal calf serum and incubated overnight at 37° C. and 5% CO2. Each compound was dissolved in DMSO as a 10 mM stock in standard j-vials and used to prepare compound source plates in dose-response format with 3-fold serial dilutions and a 10 mM top concentration. Compound transfer from serially diluted source plates to assay plates containing the cells was accomplished using a pintool (Multimek 96, Beckman equipped with V&P Scientific FP1S50H pins) based liquid handling protocol. This protocol used a slotted pin to transfer 50 nl of compound from a source plate well to an assay plate well containing 50 μl of cells in growth medium. […] Control wells received 50 nl of DMSO treatment for normalization and calculating IC50 values. The treated cells were incubated at 37° C. and 5% CO2 for an additional forty-two hours. Following incubation, the growth medium was removed and 50 μl of BrightGlo luminescence reagent (Promega) was added to each well of the 96-well assay plates. The plates were placed on an orbital shaker for 5 min and then luminescence was quantified on the Victor3 (Perkin Elmer) plate reader. Readings were normalized to DMSO only treated cells, and normalized activities were utilized for IC50 calculations using the dose-response log (inhibitor) vs. response—variable slope (four parameters) nonlinear regression feature available in GraphPad Prism 5.0 or 6.0.

Point of comparison: CC(C)CC(=O)Nc1cncc(-c2ccc3[nH]nc(-c4nc5c(-c6ccc(F)s6)ccnc5[nH]4)c3c2)c1 [Compound 340, N-(5-(3-(7-(5-Fluorothiophen-2-yl)-3H-imidazo[4,5-b]pyridin-2-yl)-1H-indazol-5-yl)pyridin-3-yl)-3-methylbutanamide], IC50 0.0049 µM. Against it:
- CC(C)CC(=O)Nc1cncc(-c2ccc3[nH]nc(-c4nc5c(-c6ccc(F)cc6)ccnc5[nH]4)c3c2)c1 [Compound 28, N-(5-(3-(7-(4-Fluorophenyl)-3H-imidazo[4,5-b]pyridin-2-yl)-1H-indazol-5-yl)pyridin-3-yl)-3-methylbutanamide] — within 1.5-fold, 0.004 µM
- CC(C)(C)CC(=O)Nc1cncc(-c2ccc3[nH]nc(-c4nc5c(-c6ccccc6F)ccnc5[nH]4)c3c2)c1 [Compound 68, N-(5-(3-(7-(2-Fluorophenyl)-3H-imidazo[4,5-b]pyridin-2-yl)-1H-indazol-5-yl)pyridin-3-yl)-3,3-dimethylbutanamide] — 11-fold higher, 0.052 µM
- CC(C)C(=O)Nc1cncc(-c2ccc3[nH]nc(-c4nc5c(-c6cccnc6)ccnc5[nH]4)c3c2)c1 [Compound 87, N-(5-(3-(7-(Pyridin-3-yl)-3H-imidazo[4,5-b]pyridin-2-yl)-1H-indazol-5-yl)pyridin-3-yl)isobutyramide] — within 1.5-fold, 0.0068 µM
- O=C(Cc1ccccc1)Nc1cncc(-c2ccc3[nH]nc(-c4nc5c(-c6ccncc6)ccnc5[nH]4)c3c2)c1 [Compound 114, 2-Phenyl-N-(5-(3-(7-(pyridin-4-yl)-3H-imidazo[4,5-b]pyridin-2-yl)-1H-indazol-5-yl)pyridin-3-yl)acetamide] — 11-fold higher, 0.054 µM
- CCCC(=O)Nc1cncc(-c2ccc3[nH]nc(-c4nc5c(-c6ccncc6)ccnc5[nH]4)c3c2)c1 [Compound 121, N-(5-(3-(7-(Pyridin-4-yl)-3H-imidazo[4,5-b]pyridin-2-yl)-1H-indazol-5-yl)pyridin-3-yl)butyramide] — 7.1-fold higher, 0.035 µM
- O=C(Nc1cncc(-c2ccc3[nH]nc(-c4nc5c(-c6ccncc6)ccnc5[nH]4)c3c2)c1)C1CCCCC1 [Compound 126, N-(5-(3-(7-(Pyridin-4-yl)-3H-imidazo[4,5-b]pyridin-2-yl)-1H-indazol-5-yl)pyridin-3-yl)cyclohexanecarboxamide] — 6.3-fold higher, 0.0307 µM
- CN1CCN(c2ccnc3[nH]c(-c4n[nH]c5ccc(-c6cncc(N)c6)cc45)nc23)CC1 [Compound 211, 5-(3-(7-(4-Methylpiperazin-1-yl)-3H-imidazo[4,5-b]pyridin-2-yl)-1H-indazol-5-yl)pyridin-3-amine] — 14-fold higher, 0.0663 µM
- O=C(Cc1ccccc1)Nc1cncc(-c2ccc3[nH]nc(-c4nc5cccnc5[nH]4)c3c2)c1 [Compound 244, N-(5-(3-(3H-Imidazo[4,5-b]pyridin-2-yl)-1H-indazol-5-yl)pyridin-3-yl)-2-phenylacetamide] — 72-fold higher, 0.352 µM
- CC(C)(C)C(=O)Nc1cncc(-c2ccc3[nH]nc(-c4nc5c(-c6ccsc6)ccnc5[nH]4)c3c2)c1 [Compound 268, N-(5-(3-(7-(Thiophen-3-yl)-3H-imidazo[4,5-b]pyridin-2-yl)-1H-indazol-5-yl)pyridin-3-yl)pivalamide] — within 1.5-fold, 0.0065 µM
- CN(C)c1cncc(-c2ccc3[nH]nc(-c4nc5c(-c6cccs6)ccnc5[nH]4)c3c2)c1 [Compound 319, N,N-Dimethyl-5-(3-(7-(thiophen-2-yl)-3H-imidazo[4,5-b]pyridin-2-yl)-1H-indazol-5-yl)pyridin-3-amine] — 13-fold higher, 0.0628 µM
- CC(C)C(=O)Nc1cncc(-c2ccc3[nH]nc(-c4nc5c(-c6cccs6)ccnc5[nH]4)c3c2)c1 [Compound 321, N-(5-(3-(7-(Thiophen-2-yl)-3H-imidazo[4,5-b]pyridin-2-yl)-1H-indazol-5-yl)pyridin-3-yl)isobutyramide] — 8.4-fold higher, 0.0411 µM
- O=C(Nc1cncc(-c2ccc3[nH]nc(-c4nc5c(-c6ccc(F)s6)ccnc5[nH]4)c3c2)c1)C1CCC1 [Compound 358, N-(5-(3-(7-(5-Fluorothiophen-2-yl)-3H-imidazo[4,5-b]pyridin-2-yl)-1H-indazol-5-yl)pyridin-3-yl)cyclobutanecarboxamide] — within 1.5-fold, 0.0069 µM
